Values quoted from earlier work as cited in patent US20080085858A1, “Pharmaceutical Composition” (KYOWA HAKKO KOGYO CO., LTD., priority 2004, published 2008).

Key:
[1] = system: delayed-type allergic reaction in the skin; settings: animal model; Non-patent Document 1
[2] = system: chronic dermatitis models; settings: Non-patent Document 2

COc1ccc([C@]2(C#N)CC[C@@H](C(=O)O)CC2)cc1OC1CCCC1 [SB207499]
Effect on delayed-type allergic reaction in the skin [1]: inhibit a delayed-type allergic reaction in the skin
Therapeutic effects on chronic dermatitis models [2]: exhibit therapeutic effects on chronic dermatitis models
